Data reported in patent US9914698B2, “Stearoyl amino acid salt and preparation method and application thereof” (Shanghai Jiaotong University School of Medicine, priority 2014, dated 2018).
Read-outs that look alike come from different tables or passages of the source. Marks after values point to notes of the source that are not given here.

Experiments:
[1] = Equilibrium solubility, shake-flask method; assay type: physicochemical
Procedure: (§1) The shake-flask method was used to test the equilibrium solubility of NsTyr, NsTyr-2K, NsTyr-2Na in water at 37° C. […] The apparent lipid-water distribution coefficient log p of NsTyr-2K, NsTyr-2Na was respectively 1.512 and 1.477. Under different pHs, see Table 1 for the equilibrium solubility test data of NsTyr-2K, NsTyr-2Na; and see Table 2 for the apparent lipid-water distribution coefficient of NsTyr-2K and NsTyr-2Na.

[2] = Absorption kinetics after intragastric administration; assay type: in vivo; conditions: both sexes, Sprague-Dawley (SD), rat, blood; SD rats, oral 200 mg/kg
Procedure: Ten SD rats weighing 150-180 g were randomly divided into two groups, each comprising five, with males and females combined. After intragastric administration of 200 mg/kg of saline solution containing NsTyr and NsTyr-2K, the average blood concentration-time curve thereof was respectively shown in FIG. 2.

obese mouse model [3] = assay: H&E staining of fat and liver tissue of obese mice; assay type: in vivo, C57BL/6 mice
Procedure: 2. Method: Epididymal fat and liver were fixed in 10% neutral formaldehyde solution for 48 h. After paraffin embedding they were made into […] of slices, and stained with hematoxylin-eosin (H&E staining). Light microscope was used to observe the size of fat cells, the structure of liver cells and adipose accumulation.

obese mouse model [4] = assay: Collection and observation of fat and liver tissues of obese mice; assay type: in vivo, C57BL/6 mice; conditions: 100 mg/kg/day
Text: 2. Method: After administration test in Embodiment 8, the mice were denied food overnight. Their abdominal cavity was opened to observe abdominal fat content in each group of the mice. Epididymal fat, perirenal fat and liver were separated and weighed.

obese mouse model [5] = assay: Administration test in obese mouse model (weight, food intake); assay type: in vivo, C57BL/6 mice
Procedure: 2. Method: 60 C57BL/6 mice (aged 3 weeks, male, with a weight of 8.3 g each) were adaptively fed with 12% kcal normal diet for one week, and randomly divided into 6 groups, each consisting of 10 mice. One group (ND) continued to be fed with normal diet, the rest five groups (HFD I˜V) were fed with 45% kcal high-fat diet.
In the whole test process the mice kept raised in the following environment: temperature: 23±3° C.; humidity: 50±5%; bright and dim alternating cycle: 12 h/12 h; freely available to diet and drinking water in the whole process.
2. Method: ND and HFD I were respectively taken as normal and high-fat diet blank control groups, and were treated with 0.5% sodium carboxymethyl cellulose solution (5 ml/kg/day); HFD II˜IV were taken as groups of recipients, and were treated with NST-2K (20, 60, 100 mg/kg/day); HFD V was taken as a positive control group, and treated with Orlistat (100 mg/kg/day). All the above drugs dissolved in aqueous solution of 0.5% sodium carboxymethyl cellulose and were administered. The administration remained four weeks. In each week average weight and food intake were kept in record until the phase of administration ended.

[6] = Stability assessment (influencing factors, acceleration and long-term tests, Chinese Pharmacopoeia 2010); assay type: physicochemical; conditions: high temperature, high humidity, strong light
Procedure: Considering that prototype drug stearoyl amino acid tend to absorb moisture, cake and become yellowish during long-term storage, the stearoyl amino acid is now converted into a form of active salt thereof. And the stability of NsTyr-2K and NsTyr-2Na was tested as required for bulk pharmaceutical chemicals according to the People's Republic of China Pharmacopoeia 2010.

TAU transgenic mice [7] = assay: Morris water maze test (place navigation and spatial probe); assay type: in vivo
Text: (§2) Materials for water maze test: a constant-temperature swimming pool, a platform for mice, and an ethological computer image analysis system (SHANGHAI MOBILEDATUM TECH INFORMATION CO. LTD).
(§3) Laboratory animals: C57BL/6I (from Jackson Lab) (APP/PS1/TAU transgenic mice) in C57BL/6J (TAU transgenic mice). All APP/PS1/TAU transgenic mice and TAU transgenic mice belong to the mouse disease model as for Alzheimer's disease.
(§4) Principles: Morris water maze test programs comprise two parts: place navigation test and spatial probe test. The former lasted a few days; each day mice were respectively put into water from four entries several times, and the time they spent seeking the platform hidden underwater (escape latency) was recorded. When place navigation test ended, the platform was removed. The latter recorded the mouse swimming trajectory after the mice were put into water from any chosen entry, and assessed their previous memory of the platform.

[8] = test system: APP/PS1/TAU transgenic mice; assay: as above; assay type: in vivo
Text: as §2, §3, §4

TAU transgenic mice [9] = assay: Open-field test; assay type: in vivo; conditions: medium-dose (30 mg/kg) and high-dose (45 mg/kg)
Text: (§5) Materials for open-field test: a spontaneous activity watch box (80×80×30), on top of which is furnished with a fluorescent lamp as a lighting system, and on the center of whose roof is a CCD camera connected to the computer; and an ethological computer image analysis system (SHANGHAI MOBILEDATUM TECH INFORMATION CO. LTD).
as §3
(§6) [1] Priscila Cagni, Mrilia Barros. Cannabinoid type I receptor ligands WIN 55,212-2 and AM251 alter anxiety-like behaviors of marmoset monkeys in an open-field test. Behavioural Brain Research 2013; 240:91-94.
(§7) Principles: Open-field test is useful for evaluation of mouse anxiety and behavior probing the outside world. By nature mice are capable of both exploring the unknown territory and protecting themselves from damage due to external potential risks. Open-field test, therefore, can test such mouse capabilities by recording their duration of stay at the marginal area and the central area (where anxiety occurs) in an open field. Meanwhile, the test as such can also measure mouse movement capabilities such as speed.

[10] = test system: APP/PS1/TAU transgenic mice; assay: Open-field test; assay type: in vivo
Text: as §5, §3, §6, §7

TAU transgenic mice [11] = assay: High plus maze test; assay type: in vivo
Text: (§8) Materials for high plus maze: consisting of two opening arms opposite to each other and two closing arms opposite to each other, a central platform connecting the aforesaid arms, and a short, 1-cm-high damper along the edges of the opening arms (to prevent animals from slipping off the maze in the process of exploring), with the floors of the four arms and the central platform being black; the floor of the maze adjusted to be 50 cm away from the laboratory ground; and an ethological computer image analysis system (SHANGHAI MOBILEDATUM TECH INFORMATION CO. LTD).
as §3
(§9) Principles: With a couple of opening arms and another couple of closing arms, the high plus maze is useful for assessment of animal anxiety by taking advantage of animal tendency to explore a new extraneous environment as well as their fear of high and open extending arms, which form a behavioral conflict. Rodents tend to move within closing arms due to their fondness of dark, but will, out of curiosity, go into opening arms and move around there. When stimulated by a novel environment, they will engender an impulse to explore and a fear at the same time.

[12] = test system: APP/PS1/TAU transgenic mice; assay: High plus maze test; assay type: in vivo; conditions: different doses
Text: as §8, §3, §9

[13] = test system: APP/PS1 TAU transgenic mouse; assay: Rota rod test; assay type: in vivo, mice; conditions: high-dose
Text: Materials for rota rod test: rotary rod type fatigue tester YLS-4C (SHANGHAI MOBILEDATUM TECH INFORMATION CO. LTD).
as §3
Principles: Rota rod is useful for studying the effects of drugs upon movement coordination and fatigue resistance.

[14] = Apparent lipid-water distribution coefficient; assay type: physicochemical
Procedure: as §1

[15] = test system: gerbil model with global ischemia reperfusion injury; assay: Neurobehavioral scores of acute cerebral ischemia reperfusion model; assay type: in vivo; conditions: positive control group, dose not given; ischemic model group 3.1+/−0.32
Text: Taking N-stearoyl amino acid potassium NsTyr-2K as an example, a gerbil model with global ischemia reperfusion injury was used to assess the protective role of NsTyr-2K against neurobehavioral disorder caused by cerebral ischemia-reperfusion injury by examining the changing behavioral indexes such as spatial, learning and cognitive functions in the perspective of overall animals during passive dark avoidance test and Morris water maze test.

[16] = day 5, medium-dose and high-dose group, *P<0.05

CCCCCCCCCCCCCCCCCC(=O)N[C@@H](Cc1ccc(O)cc1)C(=O)O [NsTyr, N-stearoyl tyrosine]
solubility thermodynamic ([1]; thermodynamic from solid, water, 37° C., read-out: equilibrium solubility in water): < 1000 µg/mL
AUC(0-inf) [2]: 140 ng·h/mL
AUC(0-t) [2]: 130 ng·h/mL
Cmax [2]: 110 ng/mL
MRT last [2]: 1.38 h
Tmax [2]: 0.75 h
half-life [2]: 1.49 h

CCCCCCCCCCC[C@@H](C[C@@H]1OC(=O)[C@H]1CCCCCC)OC(=O)[C@H](CC(C)C)NC=O [Orlistat, reference compound]
size of epididymal fat cells (obese mouse model [3]; HFD III, HFD IV (NST-2K 60, 100 mg/kg/day) and HFD V (Orlistat 100 mg/kg/day) vs HFD I): evidently smaller fat cells than HFD I
fat accumulation in liver tissues (obese mouse model [3]; as the administration dose increased, vs HFD I): the accumulation began to ease
perirenal fat percentage quality (obese mouse model [4]; HFD I blank 1.63 ± 0.10): 1.32 ± 0.06 g/100 g weight
Epididymal fat percentage quality (obese mouse model [4]; HFD I blank 2.99 ± 0.08): 2.66 ± 0.07 g/100 g weight
Liver percentage quality (obese mouse model [4]; HFD I blank 3.51 ± 0.07): 3.48 ± 0.06***^ g/100 g weight
obese mouse weight (obese mouse model [5]; 100 mg/kg/day, four weeks): can inhibit weight gain in obese mice
appetite (average daily food intake) (obese mouse model [5]; 4-week administration, high-fat diet groups): neither NST-2K nor Orlistat suppressed appetite

CCCCCCCCCCCCCCCCCC(=O)N[C@@H](Cc1ccc(O)cc1)C(=O)[O-].CCCCCCCCCCCCCCCCCC(=O)N[C@@H](Cc1ccc(O)cc1)C(=O)[O-].[Na+].[Na+] [NsTyr-2Na]
Equilibrium solubility in buffer solution ([1]; pH 2.0): 66.938 µg/mL
Equilibrium solubility in buffer solution ([1]; pH 3.0): 66.334 µg/mL
Equilibrium solubility in buffer solution ([1]; pH 4.0): 195.371 µg/mL
Equilibrium solubility in buffer solution ([1]; pH 5.0): 232.102 µg/mL
Equilibrium solubility in buffer solution ([1]; pH 6.0): 274.629 µg/mL
Equilibrium solubility in buffer solution ([1]; pH 7.0): 318.016 µg/mL
Equilibrium solubility in buffer solution ([1]; pH 7.4): 374.484 µg/mL
Equilibrium solubility in buffer solution ([1]; pH 8.0): 463.902 µg/mL
Equilibrium solubility in buffer solution ([1]; pH 9.0): 512.644 µg/mL
stability [6]: stable properties
latency in place navigation test (TAU transgenic mice [7]; day 4, high-dose group vs model group): significant difference
latency in place navigation test (TAU transgenic mice [7]; [16]): significant difference
swimming time percentage in the third quadrant (probe test) (TAU transgenic mice [7]; day 5, platform removed, medium-dose and high-dose group): statistical significance
spatial probing (swimming trajectory, FIG. 11) (TAU transgenic mice [7]; spatial probe test): both the medium- and high-dose groups could improve their spatial probing
latency in place navigation test ([8]; day 4, dosing group vs model group): no significant difference
latency in place navigation test [8, 16]: significant difference
swimming time percentage in the third quadrant (probe test) ([8]; day 5, platform removed, high-dose group): statistical significance
spatial probing (swimming trajectory, FIG. 11) ([8]; spatial probe test): only the high-dose group could enhance their spatial probing
duration of stay in the central area (TAU transgenic mice [9]): reduce their duration of stay in the central area
movement ability (journey) (TAU transgenic mice [9]): could enhance transgenic mouse movement ability
duration of stay at the central activity area ([10]; 15, 30, 45 mg/kg): could not be changed
mouse journey ([10]; high-dose 45 mg/kg): could increase mouse journey
low-anxiety state (TAU transgenic mice [11]; different doses): the low-anxiety state was changed
low-anxiety state (TAU transgenic mice [11]; high-dose, compared with the animal model group): significant difference
low anxiety state [12]: did not change
movement coordination [13]: could obviously improve the phenomenon
Apparent lipid-water distribution coefficient LogP [14]: 1.477
Apparent lipid-water distribution coefficient Ko/w ([14]; buffer pH 2.0): 49.913
Apparent lipid-water distribution coefficient LogP ([14]; buffer pH 2.0): 1.698
Apparent lipid-water distribution coefficient Ko/w ([14]; buffer pH 3.0): 28.980
Apparent lipid-water distribution coefficient LogP ([14]; buffer pH 3.0): 1.462
Apparent lipid-water distribution coefficient Ko/w ([14]; buffer pH 4.0): 15.224
Apparent lipid-water distribution coefficient LogP ([14]; buffer pH 4.0): 1.183
Apparent lipid-water distribution coefficient Ko/w ([14]; buffer pH 5.0): 18.710
Apparent lipid-water distribution coefficient LogP ([14]; buffer pH 5.0): 1.272
Apparent lipid-water distribution coefficient Ko/w ([14]; buffer pH 6.0): 19.963
Apparent lipid-water distribution coefficient LogP ([14]; buffer pH 6.0): 1.300
Apparent lipid-water distribution coefficient Ko/w ([14]; buffer pH 7.0): 31.436
Apparent lipid-water distribution coefficient LogP ([14]; buffer pH 7.0): 1.497
Apparent lipid-water distribution coefficient Ko/w ([14]; buffer pH 7.4): 29.286
Apparent lipid-water distribution coefficient LogP ([14]; buffer pH 7.4): 1.467
Apparent lipid-water distribution coefficient Ko/w ([14]; buffer pH 8.0): 28.704
Apparent lipid-water distribution coefficient LogP ([14]; buffer pH 8.0): 1.458
Apparent lipid-water distribution coefficient Ko/w ([14]; buffer pH 9.0): 21.872
Apparent lipid-water distribution coefficient LogP ([14]; buffer pH 9.0): 1.340

COCCOC(=O)C1=C(C)NC(C)=C(C(=O)OC(C)C)C1c1cccc([N+](=O)[O-])c1 (stereo not drawn) [nimotop, reference compound]
neurobehavioral score [15]: 1.12+/−0.31
